# Experiments:
# THP-1 cells = assay: Intramacrophage Leishmania donovani assay, cytotoxicity readout (THP-1 cell count); type: cell-based; conditions: 72 h incubation with compound; for EC50: Homo sapiens, THP-1, 72 h, read-out: pEC50 value against THP-1 cells (converted)
# Procedure: (§1) Intra macrophage Leishmania donovani assay
# (§2) The intramacrophage Leishmania assay was performed exactly as described in de Rycker et al (Antimicrob Agents Chemother. 2013 July; 57(7):2913-22. doi: 10.1128/AAC.02398-12. Epub 2013 Apr. 9. Comparison of a high-throughput high-content intracellular Leishmania donovani assay with an axenic amastigote assay. De Rycker M, Hallyburton I, Thomas J, Campbell L, Wyllie S, Joshi D, Cameron S, Gilbert I H, Wyatt P G, Frearson J A, Fairlamb A H, Gray D W.). Briefly, 1 μl of compound was pre-dispensed into 384 well sterile intermediary plates. For single point screening, amphotericin B was added to all wells of column 24 as a positive control (final concentration 2 μM) and DMSO to column 23. For potency determinations, ten-point, one in three dilution curves were created with the highest concentration being 50 μM and on each plate a control curve of amphotericin B was included. Controls were as follows: columns 11 and 12: DMSO, columns 23 and 24: amphotericin B (final concentration 2 μM). To the intermediary plates, 100 μl of THP-1 media was added and plates were shaken for >5 min to ensure complete mixing. THP-1 cells (8,000 per well, 50 μl) were plated into black clear-bottom 384 well plates (Corning) in presence of 10 nM PMA. After 20 min at RT, the plates were incubated at 37° C. under 5% CO2 in a humidified incubator for 75 h. The cells were then washed with 450 μl sterile phosphate buffered saline (PBS) supplemented with 1 mM CaCl2, 0.5 mM MgCl2, 0.1% (w/v) bovine serum albumin (PBS-A) and amastigotes were added to all wells at a multiplicity of infection of 5 (40,000 amastigotes per well). After 40 min at RT, plates were returned to the incubator. Amastigotes were incubated in the presence of macrophages for 16 h. […] For each well, i) THP-1 cell count (cytotoxicity readout) and ii) average number of amastigotes per cell (potency readout) were calculated, both in terms of pEC50 values.
# [1] = tested on: Leishmania donovani amastigotes; assay: Intramacrophage Leishmania donovani assay, potency readout (average number of amastigotes per cell); type: cell-based; conditions: THP-1, 72 h, amastigotes in PMA-differentiated THP-1 macrophages, 72 h incubation with compound, read-out: pEC50 value against amastigotes (converted)
# Procedure: as §1
# as §2, with “mixing.” for “mixing. THP-1 cells (8,000 per well, 50 μl) were plated into black clear-bottom 384 well plates (Corning) in presence of 10 nM PMA. After 20 min at RT, the plates were incubated at 37° C. under 5% CO2 in a humidified incubator for 75 h. The cells were then washed with 450 μl sterile phosphate buffered saline (PBS) supplemented with 1 mM CaCl2, 0.5 mM MgCl2, 0.1% (w/v) bovine serum albumin (PBS-A) and amastigotes were added to all wells at a multiplicity of infection of 5 (40,000 amastigotes per well). After 40 min at RT, plates were returned to the incubator. Amastigotes were incubated in the presence of macrophages for 16 h.”
Structure (SMILES),pEC50 value against THP-1 cells (THP-1 cells),EC50 (THP-1 cells),EC50 [1]
"C[C@H]1CN(c2n[nH]c3nc(NC4CCC(NS(=O)(=O)CCC(F)(F)F)CC4)ncc23)CCO1 (single isomer, unassigned) [Formula (I)]",4.3,≥ 39.8 µM,
"C[C@@H]1CN(c2n[nH]c3nc(NC4CCC(NS(=O)(=O)CCC(F)(F)F)CC4)ncc23)CCO1 (single isomer, unassigned) [opposite enantiomer]",,≥ 39.8 µM,≤ 5.01 µM

# From US10253028B2, “Pyrazolo[3,4-D]pyrimidin derivative and its use for the treatment of leishmaniasis” (GlaxoSmithKline Intellectual Property Development Limited, priority 2015, dated 2019)
